Tested on: SCID mice
Assay: Preclinical dosimetry from biodistribution in mice, extrapolated to 70-kg Standard Adult (OLINDA/EXM 1.0)
Assay type: in vivo
Details: […] bladder voiding interval
Experimental: 3-5 mice were injected per timepoint with a mean 25.6±3.6 MBq of 18F-rhPSMA-7 and 28.5±4.8 MBq of 18F-rhPSMA-7.3, respectively. Mice, severe combined immunodeficiency (SCID) were used for the experiments.
Mice were sacrificed at the following timepoints: • ^18F-rhPSMA-7: 10, 20, 40, 60, 120 and 180 minutes after administration. • ^18F-rhPSMA-7.3: 10, 60, 120, 180 and 300 minutes after administration.
Urine, blood, heart, lung, spleen, pancreas, liver, stomach (emptied), small intestine (emptied), large intestine (emptied), kidneys, bladder, testis, fat, muscle (partial, femoral), femur, tail and brain. Urine was collected with a pipette in the CO2 gas chamber. In case of missing urination in the chamber the bladder was aspirated with an insulin syringe. Blood was withdrawn instantly after sacrifice with an insulin syringe from the heart. All other tissues and organs were dissected and transferred directly in plastic containers.
The counting rates of measurement samples were automatically corrected for decay. The radioactivity distribution ratios (unit: percentage of the injected dose (% ID) in the measurement samples were determined using the equation below. The sum of the counting rates from all measurement samples obtained from one mouse was designated as the counting rate for administrated radioactivity.
The radioactivity distribution ratio per unit weight of the measurement sample (unit: % ID/g) excluding urine and feces samples was determined by using the equation below. The weight of the measurement sample was determined by subtraction of the empty measurement container from the container including the sample.
For consistency of statistical calculations for each radiotracer the same number of time-points for ^18F-rhPSMA-7 and ^18F-rhPSMA-7.3 was used. Therefore, for ^18F-rhPSMA-7 the 10 min and 20 min time points were combined creating a 15 min endpoint.
The time-integral of activity for the accumulation in the significant source organs (AUCs) were generated both with numerical integration and physical decay according to J Juan et al., Journal of Pharmaceutical Sciences, 1993, 82:762-763.
In brief, to calculate a human dosimetry from the biodistribution in the mice, an extrapolation was necessary to account for the differences between the animals and humans. Normal-organ radiation doses were estimated for the 70-kg Standard Adult anatomic model using time-depending organ activity concentrations (in percent of the injected dose per gram, % ID/g) and total-body activities measured in the biodistribution studies in mice.
Tissue activity concentrations in mice were converted to tissue fractional activities in the 70-kg Standard Adult using the relative fractional organ masses in the Standard Adult and the “standard” 25-gramm mouse. Time-dependent total-body activity was fit to an exponential function and the difference between the injected activity and the total-body activity was assumed to be excreted to the urine because activity concentrations in the liver and GI tracer were low at all time points studied.
Organ residence time was calculated by numerical integration using the trapezoidal rule and the rest-of-body ^18F residence times was calculated as the difference between the total-body residence time and the sum of the organ and urine residence times. The bladder contents residence time was estimated using the dynamic voiding model in the OLINDA/EXM 1.0 dosimetry software. Finally, the Standard Adult mean organ dose equivalents (in mSv/MBq) and effective dose (also in mSv/MBq) were then calculated using OLIN DA/EXM 1.0.
Final calculation of radiation absorbed dose and dosimetry from biodistribution in mice: The tissues or organs in which a significant accumulation of radioactivity occurs (i.e., source organ) were kidney, spleen, lung, liver and heart. With respect to activity accumulation and clearance, a rapid clearance from blood and clearance to urine but relatively slow build-up in kidney was found.

[^19F][^natGa]D/L-Dap-R/S-DOTAGA-rhPSMA7 [rhPSMA7-rac]
Adrenals ED Cont.: 3.90E−05 mSv/MBq
Adrenals EDE Cont.: 0.00E000 mSv/MBq
Adrenals dose Alpha: 0.00E000 mSv/MBq
Adrenals dose Beta: 1.95E−03 mSv/MBq
Adrenals dose Photon: 5.85E−03 mSv/MBq
Adrenals dose Total: 7.80E−03 mSv/MBq
Brain ED Cont.: 2.24E−05 mSv/MBq
Brain EDE Cont.: 0.00E000 mSv/MBq
Brain dose Alpha: 0.00E000 mSv/MBq
Brain dose Beta: 1.95E−03 mSv/MBq
Brain dose Photon: 2.54E−03 mSv/MBq
Brain dose Total: 4.49E−03 mSv/MBq
Breasts ED Cont.: 2.12E−04 mSv/MBq
Breasts EDE Cont.: 6.36E−04 mSv/MBq
Breasts dose Alpha: 0.00E000 mSv/MBq
Breasts dose Beta: 1.95E−03 mSv/MBq
Breasts dose Photon: 2.29E−03 mSv/MBq
Breasts dose Total: 4.24E−03 mSv/MBq
Gallbladder Wall ED Cont.: 0.00E000 mSv/MBq
Gallbladder Wall EDE Cont.: 0.00E000 mSv/MBq
Gallbladder Wall dose Alpha: 0.00E000 mSv/MBq
Gallbladder Wall dose Beta: 1.95E−03 mSv/MBq
Gallbladder Wall dose Photon: 5.54E−03 mSv/MBq
Gallbladder Wall dose Total: 7.49E−03 mSv/MBq
Heart Wall ED Cont.: 0.00E000 mSv/MBq
Heart Wall EDE Cont.: 0.00E000 mSv/MBq
Heart Wall dose Alpha: 0.00E000 mSv/MBq
Heart Wall dose Beta: 8.82E−04 mSv/MBq
Heart Wall dose Photon: 3.54E−03 mSv/MBq
Heart Wall dose Total: 4.42E−03 mSv/MBq
Kidneys ED Cont.: 3.25E−04 mSv/MBq
Kidneys EDE Cont.: 3.91E−03 mSv/MBq
Kidneys dose Alpha: 0.00E000 mSv/MBq
Kidneys dose Beta: 4.70E−02 mSv/MBq
Kidneys dose Photon: 1.80E−02 mSv/MBq
Kidneys dose Total: 6.51E−02 mSv/MBq
LLI Wall ED Cont.: 1.93E−03 mSv/MBq
LLI Wall EDE Cont.: 9.66E−04 mSv/MBq
LLI Wall dose Alpha: 0.00E000 mSv/MBq
LLI Wall dose Beta: 1.95E−03 mSv/MBq
LLI Wall dose Photon: 1.41E−02 mSv/MBq
LLI Wall dose Total: 1.61E−02 mSv/MBq
Liver ED Cont.: 2.13E−04 mSv/MBq
Liver EDE Cont.: 0.00E000 mSv/MBq
Liver dose Alpha: 0.00E000 mSv/MBq
Liver dose Beta: 6.35E−04 mSv/MBq
Liver dose Photon: 3.63E−03 mSv/MBq
Liver dose Total: 4.27E−03 mSv/MBq
Lungs ED Cont.: 5.16E−04 mSv/MBq
Lungs EDE Cont.: 5.16E−04 mSv/MBq
Lungs dose Alpha: 0.00E000 mSv/MBq
Lungs dose Beta: 1.25E−03 mSv/MBq
Lungs dose Photon: 3.04E−03 mSv/MBq
Lungs dose Total: 4.30E−03 mSv/MBq
Muscle ED Cont.: 3.84E−05 mSv/MBq
Muscle EDE Cont.: 0.00E000 mSv/MBq
Muscle dose Alpha: 0.00E000 mSv/MBq
Muscle dose Beta: 1.95E−03 mSv/MBq
Muscle dose Photon: 5.73E−03 mSv/MBq
Muscle dose Total: 7.68E−03 mSv/MBq
Osteogenic Cells ED Cont.: 8.93E−05 mSv/MBq
Osteogenic Cells EDE Cont.: 2.68E−04 mSv/MBq
Osteogenic Cells dose Alpha: 0.00E000 mSv/MBq
Osteogenic Cells dose Beta: 4.18E−03 mSv/MBq
Osteogenic Cells dose Photon: 4.75E−03 mSv/MBq
Osteogenic Cells dose Total: 8.93E−03 mSv/MBq
Ovaries ED Cont.: 3.09E−03 mSv/MBq
Ovaries EDE Cont.: 3.87E−03 mSv/MBq
Ovaries dose Alpha: 0.00E000 mSv/MBq
Ovaries dose Beta: 1.95E−03 mSv/MBq
Ovaries dose Photon: 1.35E−02 mSv/MBq
Ovaries dose Total: 1.55E−02 mSv/MBq
Pancreas ED Cont.: 4.04E−05 mSv/MBq
Pancreas EDE Cont.: 0.00E000 mSv/MBq
Pancreas dose Alpha: 0.00E000 mSv/MBq
Pancreas dose Beta: 1.95E−03 mSv/MBq
Pancreas dose Photon: 6.13E−03 mSv/MBq
Pancreas dose Total: 8.08E−03 mSv/MBq
Red Marrow ED Cont.: 8.16E−04 mSv/MBq
Red Marrow EDE Cont.: 8.16E−04 mSv/MBq
Red Marrow dose Alpha: 0.00E000 mSv/MBq
Red Marrow dose Beta: 1.39E−03 mSv/MBq
Red Marrow dose Photon: 5.41E−03 mSv/MBq
Red Marrow dose Total: 6.80E−03 mSv/MBq
Skin ED Cont.: 4.93E−05 mSv/MBq
Skin EDE Cont.: 0.00E000 mSv/MBq
Skin dose Alpha: 0.00E000 mSv/MBq
Skin dose Beta: 1.95E−03 mSv/MBq
Skin dose Photon: 2.98E−03 mSv/MBq
Skin dose Total: 4.93E−03 mSv/MBq
Small Intestine ED Cont.: 5.18E−05 mSv/MBq
Small Intestine EDE Cont.: 0.00E000 mSv/MBq
Small Intestine dose Alpha: 0.00E000 mSv/MBq
Small Intestine dose Beta: 1.95E−03 mSv/MBq
Small Intestine dose Photon: 8.40E−03 mSv/MBq
Small Intestine dose Total: 1.04E−02 mSv/MBq
Spleen ED Cont.: 1.30E−04 mSv/MBq
Spleen EDE Cont.: 1.56E−03 mSv/MBq
Spleen dose Alpha: 0.00E000 mSv/MBq
Spleen dose Beta: 1.59E−02 mSv/MBq
Spleen dose Photon: 1.01E−02 mSv/MBq
Spleen dose Total: 2.61E−02 mSv/MBq
Stomach Wall ED Cont.: 8.40E−04 mSv/MBq
Stomach Wall EDE Cont.: 0.00E000 mSv/MBq
Stomach Wall dose Alpha: 0.00E000 mSv/MBq
Stomach Wall dose Beta: 1.95E−03 mSv/MBq
Stomach Wall dose Photon: 5.05E−03 mSv/MBq
Stomach Wall dose Total: 7.00E−03 mSv/MBq
Testes ED Cont.: 0.00E000 mSv/MBq
Testes EDE Cont.: 0.00E000 mSv/MBq
Testes dose Alpha: 0.00E000 mSv/MBq
Testes dose Beta: 1.95E−03 mSv/MBq
Testes dose Photon: 9.69E−03 mSv/MBq
Testes dose Total: 1.16E−02 mSv/MBq
Thymus ED Cont.: 2.59E−05 mSv/MBq
Thymus EDE Cont.: 0.00E000 mSv/MBq
Thymus dose Alpha: 0.00E000 mSv/MBq
Thymus dose Beta: 1.95E−03 mSv/MBq
Thymus dose Photon: 3.24E−03 mSv/MBq
Thymus dose Total: 5.18E−03 mSv/MBq
Thyroid ED Cont.: 2.59E−04 mSv/MBq
Thyroid EDE Cont.: 1.55E−04 mSv/MBq
Thyroid dose Alpha: 0.00E000 mSv/MBq
Thyroid dose Beta: 1.95E−03 mSv/MBq
Thyroid dose Photon: 3.23E−03 mSv/MBq
Thyroid dose Total: 5.18E−03 mSv/MBq
Total Body ED Cont.: 0.00E000 mSv/MBq
Total Body EDE Cont.: 0.00E000 mSv/MBq
Total Body dose Alpha: 0.00E000 mSv/MBq
Total Body dose Beta: 2.37E−03 mSv/MBq
Total Body dose Photon: 5.39E−03 mSv/MBq
Total Body dose Total: 7.77E−03 mSv/MBq
ULI Wall ED Cont.: 4.63E−05 mSv/MBq
ULI Wall EDE Cont.: 0.00E000 mSv/MBq
ULI Wall dose Alpha: 0.00E000 mSv/MBq
ULI Wall dose Beta: 1.95E−03 mSv/MBq
ULI Wall dose Photon: 7.31E−03 mSv/MBq
ULI Wall dose Total: 9.26E−03 mSv/MBq
Urinary Bladder Wall ED Cont.: 1.77E−02 mSv/MBq
Urinary Bladder Wall EDE Cont.: 2.12E−02 mSv/MBq
Urinary Bladder Wall dose Alpha: 0.00E000 mSv/MBq
Urinary Bladder Wall dose Beta: 2.45E−01 mSv/MBq
Urinary Bladder Wall dose Photon: 1.08E−01 mSv/MBq
Urinary Bladder Wall dose Total: 3.54E−01 mSv/MBq
Uterus ED Cont.: 1.40E−04 mSv/MBq
Uterus EDE Cont.: 1.68E−03 mSv/MBq
Uterus dose Alpha: 0.00E000 mSv/MBq
Uterus dose Beta: 1.95E−03 mSv/MBq
Uterus dose Photon: 2.61E−02 mSv/MBq
Uterus dose Total: 2.80E−02 mSv/MBq

Reference: patent US12357711B2, “PSMA binding dual mode radiotracer and therapeutic” (Technische Universität München, priority 2019, dated 2025)
